The term IC50 denotes the concentration that gives 50% inhibition. Read a high IC50 as weaker potency in that assay.

In ChEMBL document CHEMBL5316320, “Discovery of Novel Indazole Chemotypes as Isoform-Selective JNK3 Inhibitors for the Treatment of Parkinson's Disease” (J Med Chem, 2023) one finds IC50 data, which are given here for 35 molecules.

SMILES strings stand for the structures.

The target of assay [1] is T1, Mitogen-activated protein kinase 8 (Homo sapiens, UniProt P45983).
The target in assay [2] is Mitogen-activated protein kinase 10 (Homo sapiens, UniProt P53779).
Mitogen-activated protein kinase 10, sequence (P53779 whole entry): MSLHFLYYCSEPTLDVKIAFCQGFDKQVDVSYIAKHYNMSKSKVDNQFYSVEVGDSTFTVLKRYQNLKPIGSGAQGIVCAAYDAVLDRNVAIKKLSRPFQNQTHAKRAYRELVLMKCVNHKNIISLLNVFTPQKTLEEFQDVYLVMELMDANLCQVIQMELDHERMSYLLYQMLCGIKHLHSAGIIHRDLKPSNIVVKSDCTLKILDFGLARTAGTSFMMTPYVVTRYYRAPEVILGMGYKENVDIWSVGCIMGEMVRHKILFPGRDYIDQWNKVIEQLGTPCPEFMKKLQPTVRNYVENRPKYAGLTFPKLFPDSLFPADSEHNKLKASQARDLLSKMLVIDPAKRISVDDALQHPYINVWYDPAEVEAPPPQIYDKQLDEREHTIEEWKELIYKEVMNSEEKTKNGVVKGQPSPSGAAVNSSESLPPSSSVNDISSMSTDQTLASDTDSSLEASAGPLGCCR
Assay [3] concerns the target Mitogen-activated protein kinase 9 (Homo sapiens, UniProt P45984). The experiment in a line: Inhibition of JNK2 (unknown origin) by kinase profiling assay.
The target of assay [4] is T1, Mitogen-activated protein kinase 8. The experiment in a line: Inhibition of JNK1 (unknown origin) by kinase profiling assay.
Assay [5] has as its target Cyclin-dependent kinase-like 3 (Homo sapiens, UniProt Q8IVW4). The assay can be described thus: Inhibition of CDKL3 (unknown origin) by kinase profiling assay.
Assay [6] has as its target T2, Serine/threonine-protein kinase D3 (Homo sapiens, UniProt O94806).
T2 sequence (O94806 whole entry): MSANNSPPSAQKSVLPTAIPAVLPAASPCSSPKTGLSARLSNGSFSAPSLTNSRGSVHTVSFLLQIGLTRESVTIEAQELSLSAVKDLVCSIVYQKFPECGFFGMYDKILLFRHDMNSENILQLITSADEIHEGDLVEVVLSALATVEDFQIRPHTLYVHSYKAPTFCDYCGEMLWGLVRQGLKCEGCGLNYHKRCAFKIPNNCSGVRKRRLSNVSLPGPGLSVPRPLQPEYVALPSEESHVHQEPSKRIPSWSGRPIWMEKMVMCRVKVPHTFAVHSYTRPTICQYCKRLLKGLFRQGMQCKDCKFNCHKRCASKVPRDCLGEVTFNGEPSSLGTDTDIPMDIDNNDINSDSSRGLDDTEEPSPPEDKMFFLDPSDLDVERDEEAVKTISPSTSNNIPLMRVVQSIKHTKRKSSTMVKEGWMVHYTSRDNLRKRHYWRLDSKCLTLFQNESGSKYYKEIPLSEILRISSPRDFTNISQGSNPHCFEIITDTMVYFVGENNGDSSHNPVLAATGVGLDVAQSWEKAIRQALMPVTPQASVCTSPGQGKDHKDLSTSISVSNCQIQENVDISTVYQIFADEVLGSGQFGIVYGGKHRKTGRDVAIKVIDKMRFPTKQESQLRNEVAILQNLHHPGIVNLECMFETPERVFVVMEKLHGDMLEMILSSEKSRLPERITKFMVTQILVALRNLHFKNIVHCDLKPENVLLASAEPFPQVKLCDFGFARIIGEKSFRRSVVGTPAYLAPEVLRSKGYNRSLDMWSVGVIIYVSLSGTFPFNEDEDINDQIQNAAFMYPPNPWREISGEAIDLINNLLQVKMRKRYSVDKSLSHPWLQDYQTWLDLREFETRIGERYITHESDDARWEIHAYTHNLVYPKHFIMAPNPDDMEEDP
The experiment in a line: Inhibition of PKD3 (unknown origin) by kinase profiling assay.

Assay [7] deals with Vascular endothelial growth factor receptor 3 (Homo sapiens, UniProt P35916). The experiment in a line: Inhibition of FLT4 (unknown origin) by kinase profiling assay.
Vascular endothelial growth factor receptor 3, sequence (P35916 whole entry): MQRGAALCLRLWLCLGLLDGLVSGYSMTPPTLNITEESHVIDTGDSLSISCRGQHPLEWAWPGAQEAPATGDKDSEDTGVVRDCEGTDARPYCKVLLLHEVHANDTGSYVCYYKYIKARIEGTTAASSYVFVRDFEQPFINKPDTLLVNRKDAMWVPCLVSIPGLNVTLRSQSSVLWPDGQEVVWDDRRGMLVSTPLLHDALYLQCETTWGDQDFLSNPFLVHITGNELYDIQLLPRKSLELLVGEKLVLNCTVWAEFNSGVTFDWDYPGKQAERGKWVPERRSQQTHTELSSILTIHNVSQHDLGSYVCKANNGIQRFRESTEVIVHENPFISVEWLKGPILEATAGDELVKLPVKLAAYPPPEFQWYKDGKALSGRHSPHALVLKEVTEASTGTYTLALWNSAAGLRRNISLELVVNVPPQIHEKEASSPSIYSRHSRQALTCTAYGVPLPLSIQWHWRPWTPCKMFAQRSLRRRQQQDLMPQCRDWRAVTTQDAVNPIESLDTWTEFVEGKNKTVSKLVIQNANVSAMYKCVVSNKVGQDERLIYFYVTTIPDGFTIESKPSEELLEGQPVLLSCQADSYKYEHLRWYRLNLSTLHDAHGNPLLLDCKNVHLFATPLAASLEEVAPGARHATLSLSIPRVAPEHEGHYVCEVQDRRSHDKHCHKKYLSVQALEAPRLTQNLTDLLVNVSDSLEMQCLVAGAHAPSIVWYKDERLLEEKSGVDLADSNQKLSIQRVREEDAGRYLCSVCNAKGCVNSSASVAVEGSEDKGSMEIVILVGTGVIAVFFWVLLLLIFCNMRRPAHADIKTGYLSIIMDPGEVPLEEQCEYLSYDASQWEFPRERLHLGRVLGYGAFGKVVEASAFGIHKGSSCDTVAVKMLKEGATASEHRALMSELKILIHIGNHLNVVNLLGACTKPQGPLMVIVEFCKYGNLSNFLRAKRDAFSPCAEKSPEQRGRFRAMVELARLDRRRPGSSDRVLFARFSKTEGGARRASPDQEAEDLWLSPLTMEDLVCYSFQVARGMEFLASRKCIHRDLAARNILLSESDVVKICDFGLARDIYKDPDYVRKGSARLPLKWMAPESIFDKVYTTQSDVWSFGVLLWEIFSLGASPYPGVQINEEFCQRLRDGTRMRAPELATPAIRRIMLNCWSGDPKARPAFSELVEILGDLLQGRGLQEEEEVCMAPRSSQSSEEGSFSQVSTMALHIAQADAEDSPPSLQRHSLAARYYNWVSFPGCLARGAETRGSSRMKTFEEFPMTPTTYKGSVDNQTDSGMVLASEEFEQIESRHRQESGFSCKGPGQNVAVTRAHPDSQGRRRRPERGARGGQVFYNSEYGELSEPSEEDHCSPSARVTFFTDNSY
Assay [8] concerns the target TRAF2 and NCK-interacting protein kinase (Homo sapiens, UniProt Q9UKE5). The assay can be described thus: Inhibition of TNIK (unknown origin) by kinase profiling assay.
For assay [9], the target named is T3, Dual specificity mitogen-activated protein kinase kinase 4 (Homo sapiens, UniProt P45985).
T3 sequence (P45985 whole entry): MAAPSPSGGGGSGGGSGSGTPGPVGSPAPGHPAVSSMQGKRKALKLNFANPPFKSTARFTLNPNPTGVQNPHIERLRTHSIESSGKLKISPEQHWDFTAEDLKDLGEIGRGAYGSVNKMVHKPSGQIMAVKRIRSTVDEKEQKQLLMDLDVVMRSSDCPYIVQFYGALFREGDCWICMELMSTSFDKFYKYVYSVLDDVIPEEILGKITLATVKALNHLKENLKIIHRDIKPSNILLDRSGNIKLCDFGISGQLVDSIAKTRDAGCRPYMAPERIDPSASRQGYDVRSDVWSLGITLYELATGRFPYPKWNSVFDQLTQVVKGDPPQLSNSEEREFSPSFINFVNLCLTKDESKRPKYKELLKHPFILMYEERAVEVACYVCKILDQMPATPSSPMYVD
The experiment in a line: Inhibition of MKK4 (unknown origin) by kinase profiling assay.

The target in assay [10] is T4, Dual specificity mitogen-activated protein kinase kinase 7 (Homo sapiens, UniProt O14733).
T4 sequence (O14733 whole entry): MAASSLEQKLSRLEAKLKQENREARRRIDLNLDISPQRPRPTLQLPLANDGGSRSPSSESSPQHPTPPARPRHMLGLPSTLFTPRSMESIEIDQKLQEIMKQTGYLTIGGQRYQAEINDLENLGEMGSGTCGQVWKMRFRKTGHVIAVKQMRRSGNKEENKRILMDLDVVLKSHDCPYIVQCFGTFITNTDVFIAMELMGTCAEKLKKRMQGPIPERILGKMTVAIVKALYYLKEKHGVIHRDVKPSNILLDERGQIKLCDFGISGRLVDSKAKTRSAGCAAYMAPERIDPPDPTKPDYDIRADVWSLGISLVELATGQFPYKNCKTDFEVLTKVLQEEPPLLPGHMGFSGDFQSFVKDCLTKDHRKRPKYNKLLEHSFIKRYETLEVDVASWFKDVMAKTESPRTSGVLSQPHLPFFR
The experiment in a line: Inhibition of MKK7 (unknown origin) by kinase profiling assay.

For assay [11], the target named is Voltage-gated inwardly rectifying potassium channel KCNH2 (Homo sapiens, UniProt Q12809).
Voltage-gated inwardly rectifying potassium channel KCNH2, sequence (Q12809 whole entry): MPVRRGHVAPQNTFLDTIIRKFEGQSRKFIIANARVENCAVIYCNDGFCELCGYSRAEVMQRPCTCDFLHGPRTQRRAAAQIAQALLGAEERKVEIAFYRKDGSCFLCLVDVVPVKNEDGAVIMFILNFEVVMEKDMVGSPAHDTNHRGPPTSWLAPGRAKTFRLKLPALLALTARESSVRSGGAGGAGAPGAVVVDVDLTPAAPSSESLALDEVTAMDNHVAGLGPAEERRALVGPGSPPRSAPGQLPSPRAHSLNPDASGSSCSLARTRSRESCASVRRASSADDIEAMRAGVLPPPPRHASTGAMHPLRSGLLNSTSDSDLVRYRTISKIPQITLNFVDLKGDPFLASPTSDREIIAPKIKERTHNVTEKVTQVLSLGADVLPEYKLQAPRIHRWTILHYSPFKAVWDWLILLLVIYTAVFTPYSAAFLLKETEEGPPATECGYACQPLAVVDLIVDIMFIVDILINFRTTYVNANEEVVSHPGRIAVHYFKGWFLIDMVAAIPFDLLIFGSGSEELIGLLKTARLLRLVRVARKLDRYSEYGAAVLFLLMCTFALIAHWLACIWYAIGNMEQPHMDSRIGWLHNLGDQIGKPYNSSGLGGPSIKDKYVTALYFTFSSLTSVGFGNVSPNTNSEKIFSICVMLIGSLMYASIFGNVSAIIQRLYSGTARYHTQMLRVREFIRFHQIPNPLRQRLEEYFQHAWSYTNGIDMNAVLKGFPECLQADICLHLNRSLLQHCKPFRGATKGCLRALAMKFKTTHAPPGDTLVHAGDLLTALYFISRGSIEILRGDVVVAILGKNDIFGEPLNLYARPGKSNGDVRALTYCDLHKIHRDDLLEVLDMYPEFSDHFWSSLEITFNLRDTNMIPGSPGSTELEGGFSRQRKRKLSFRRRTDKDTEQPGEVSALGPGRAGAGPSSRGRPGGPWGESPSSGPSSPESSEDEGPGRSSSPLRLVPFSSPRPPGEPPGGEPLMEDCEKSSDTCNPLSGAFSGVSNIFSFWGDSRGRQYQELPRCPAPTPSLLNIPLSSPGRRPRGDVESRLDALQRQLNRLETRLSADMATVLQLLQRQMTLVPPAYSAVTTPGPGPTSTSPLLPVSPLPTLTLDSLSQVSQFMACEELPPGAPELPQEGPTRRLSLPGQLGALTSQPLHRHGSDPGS

T1 sequence (P45983 whole entry): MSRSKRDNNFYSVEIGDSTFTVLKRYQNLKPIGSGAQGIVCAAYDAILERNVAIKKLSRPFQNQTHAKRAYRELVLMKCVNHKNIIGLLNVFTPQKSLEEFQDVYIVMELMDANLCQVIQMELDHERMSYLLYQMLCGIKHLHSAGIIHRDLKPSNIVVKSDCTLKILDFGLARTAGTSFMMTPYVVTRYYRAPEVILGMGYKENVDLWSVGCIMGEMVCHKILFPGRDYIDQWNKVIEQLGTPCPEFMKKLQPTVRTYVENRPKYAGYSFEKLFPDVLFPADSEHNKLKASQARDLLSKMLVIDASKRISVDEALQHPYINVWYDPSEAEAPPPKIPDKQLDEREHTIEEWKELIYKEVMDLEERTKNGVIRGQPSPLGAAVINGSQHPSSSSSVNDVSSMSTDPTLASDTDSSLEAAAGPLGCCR
Mitogen-activated protein kinase 9, sequence (P45984 whole entry): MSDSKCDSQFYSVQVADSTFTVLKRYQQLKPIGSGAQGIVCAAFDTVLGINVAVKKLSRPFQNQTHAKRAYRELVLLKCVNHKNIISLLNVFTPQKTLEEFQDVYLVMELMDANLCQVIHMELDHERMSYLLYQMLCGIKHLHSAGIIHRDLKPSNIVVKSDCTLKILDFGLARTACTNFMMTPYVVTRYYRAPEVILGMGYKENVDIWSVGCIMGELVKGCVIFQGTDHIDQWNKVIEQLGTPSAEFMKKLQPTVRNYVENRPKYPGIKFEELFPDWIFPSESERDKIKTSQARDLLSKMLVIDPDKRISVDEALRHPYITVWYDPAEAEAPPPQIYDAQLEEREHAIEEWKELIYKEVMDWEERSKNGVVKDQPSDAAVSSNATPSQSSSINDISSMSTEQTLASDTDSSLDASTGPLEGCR
Cyclin-dependent kinase-like 3, sequence (Q8IVW4 whole entry): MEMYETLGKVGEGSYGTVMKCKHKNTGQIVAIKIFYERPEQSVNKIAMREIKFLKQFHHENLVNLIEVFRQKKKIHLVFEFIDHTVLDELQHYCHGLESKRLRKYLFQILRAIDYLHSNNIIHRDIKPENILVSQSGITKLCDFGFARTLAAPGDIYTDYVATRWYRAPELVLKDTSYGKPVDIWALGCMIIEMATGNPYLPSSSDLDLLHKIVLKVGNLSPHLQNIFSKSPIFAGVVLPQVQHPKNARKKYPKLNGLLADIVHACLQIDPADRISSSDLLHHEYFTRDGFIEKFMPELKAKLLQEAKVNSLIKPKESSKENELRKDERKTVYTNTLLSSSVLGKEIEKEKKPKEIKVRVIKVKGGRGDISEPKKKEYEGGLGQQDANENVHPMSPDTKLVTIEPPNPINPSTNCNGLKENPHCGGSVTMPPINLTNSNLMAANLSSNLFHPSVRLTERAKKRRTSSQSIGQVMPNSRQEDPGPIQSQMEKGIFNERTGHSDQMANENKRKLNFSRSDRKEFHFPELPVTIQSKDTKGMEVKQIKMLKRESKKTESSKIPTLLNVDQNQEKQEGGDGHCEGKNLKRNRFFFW

In the case of `O=C(c1ccc(CNc2n[nH]c3ccccc23)cc1)N1CCN(C(=O)c2ccc(F)cc2Cl)CC1`, the IC50 was 9.07 µM in assay [1] and 0.647 µM in assay [2].
On to `Cc1cccc(Cl)c1C(=O)N1CCN(C(=O)c2ccc(CNc3n[nH]c4ccccc34)cc2)CC1`, for which, in assay [1], the IC50 is > 10 µM.
For the molecule `O=C(Nc1ccccc1Cl)N1CCN(C(=O)c2ccc(CNc3n[nH]c4ccccc34)cc2)CC1`, the figures for the IC50 in assay [1] and in [2] were 7.79 µM and 0.619 µM, respectively.
The corresponding values for `O=C(Nc1ccc(Cl)cc1)c1ccc(CNc2n[nH]c3ccccc23)cc1` are > 10 µM and > 10 µM.
For the molecule `O=C(c1ccc(Cl)cc1)N1CCN(C(=O)c2ccc(CNc3n[nH]c4ccccc34)cc2)CC1`, the IC50 in assay [1] is 8.82 µM; in assay [2] it was 0.305 µM.
Regarding `O=C(c1ccc(CNc2n[nH]c3ccccc23)cc1)N1CCN(C(=O)c2cccc(C(F)(F)F)c2)CC1`, the IC50 came to 7.8 µM in [1] and 0.927 µM in assay [2].
The corresponding values for `O=C(Nc1ccccc1)c1ccc(CNc2n[nH]c3ccccc23)cc1` are > 10 µM and > 10 µM.
For `O=C(c1ccc(CNc2n[nH]c3ccccc23)cc1)N1CCN(C(=O)c2cc(Cl)ccc2Cl)CC1`, the figures for the IC50 in assay [1] and in [2] were 7.61 µM and 0.205 µM, respectively.
The corresponding values for `O=C(c1cccc(CNc2n[nH]c3c(Cl)cc([N+](=O)[O-])cc23)c1)N1CCN(C(=O)c2ccc(Cl)cc2Cl)CC1` are > 10 µM and > 10 µM.
The corresponding values for `O=C(c1ccc(CNc2n[nH]c3ccccc23)cc1)N1CCN(C(=O)c2ccc(OC(F)(F)F)cc2)CC1` are 7.68 µM and 0.325 µM.
Regarding `O=C(NN1CCCCC1)c1ccc(CNc2n[nH]c3ccccc23)cc1`, the midpoint of inhibition in [1], the IC50, lay at 9.06 µM.
Consider `O=C(c1ccc(CNc2n[nH]c3ccccc23)cc1)N1CCCC1`, for which the concentration for half-maximal inhibition (IC50) came out at 8.07 µM in assay [1] and 7.51 µM in assay [2].
As to `Cc1cccc2c(NCc3cccc(C(=O)N4CCN(C(=O)c5ccc(Cl)cc5Cl)CC4)c3)n[nH]c12`, the IC50 in [1] and in assay [2] was > 10 µM each time.
With `COc1ccc(C(=O)N2CCN(C(=O)c3ccc(CNc4n[nH]c5ccccc45)cc3)CC2)cc1`, the IC50 stood at 7.7 µM in assay [1] and 0.615 µM in assay [2].
For `O=C(c1ccc(CNc2n[nH]c3ccccc23)cc1)N1CCN(C(=O)c2cc(C(F)(F)F)ccc2Cl)CC1`, the results for the IC50 in assay [1] and in assay [2] were 9.87 µM and 0.282 µM, respectively.
Turning to `O=C(c1ccc(CNc2n[nH]c3ccccc23)cc1)N1CCN(C(=O)c2ccc(Br)cc2Br)CC1`, the figures for the IC50 in assay [1] and in assay [2] were 8.85 µM and 0.248 µM, respectively.
Molecule `O=C1c2ccccc2C2=NNC3=CC=CC1C32` (stereo unspecified) displayed an IC50 in [1] of 0.0423 µM.
As to `O=C(c1cccc(CNc2n[nH]c3cccc(Cl)c23)c1)N1CCN(C(=O)c2ccc(Cl)cc2Cl)CC1`, the IC50 in assay [3] is 9.27 µM; in assay [4] it was > 10 µM; in assay [5] it was 0.669 µM; in assay [6], 0.624 µM; in assay [7] it was 0.423 µM; in assay [8] it was 0.367 µM. For the same molecule, the IC50 is > 10 µM in [9], > 10 µM in [10], > 10 µM in assay [1] and > 30 µM in assay [11].
On to `O=C(c1ccc(CNc2n[nH]c3ccccc23)cc1)N1CCN(C(=O)c2c(Cl)cccc2Cl)CC1`, for which, in assay [2], the IC50 came to 0.279 µM.
Take `O=C(c1cccc(CNc2n[nH]c3ccccc23)c1)N1CCN(C(=O)c2cc(C(F)(F)F)ccc2F)CC1`: in [2], the IC50 was found to be 4.46 µM.
On to `O=C(c1ccc(CNc2n[nH]c3ccccc23)cc1)N1CCN(C(=O)c2c(Cl)cccc2C(F)(F)F)CC1`, for which the IC50 was found to be 7.66 µM in assay [1] and 0.253 µM in assay [2].
The corresponding values for `O=C(NCCc1ccccc1)c1ccc(CNc2n[nH]c3ccccc23)cc1` are > 10 µM and > 10 µM.
The corresponding values for `COc1ccc(NC(=O)c2ccc(CNc3n[nH]c4ccccc34)cc2)cc1` are > 10 µM and > 10 µM.
On to `O=C(c1ccc(CNc2n[nH]c3ccccc23)cc1)N1CCN(C(=O)c2ccccc2I)CC1`, for which the IC50 is 7.69 µM in [1] and 0.399 µM in assay [2].
`O=C(c1ccc(CNc2n[nH]c3ccccc23)cc1)N1CCN(C(=O)c2cccc(F)c2Cl)CC1`: the IC50 in [1] is 8.91 µM; in assay [2], 0.384 µM.
Consider `O=C(Nc1cc(C(F)(F)F)cc(C(F)(F)F)c1)N1CCN(C(=O)c2ccc(CNc3n[nH]c4ccccc34)cc2)CC1`, for which the results for the IC50 in [1] and in assay [2] were > 10 µM and 8.03 µM, respectively.
The corresponding values for `Cn1nc(NCc2cccc(C(=O)N3CCN(C(=O)c4ccc(Cl)cc4Cl)CC3)c2)c2ccccc21` are > 10 µM and > 10 µM.
For the molecule `Cc1ccc(Cl)c(C(=O)N2CCN(C(=O)c3ccc(CNc4n[nH]c5ccccc45)cc3)CC2)c1`, the figures for the IC50 in assay [1] and in [2] were > 10 µM and 0.588 µM, respectively.
As for `O=C(c1cccc(CNc2n[nH]c3ccccc23)c1)N1CCN(C(=O)c2c(F)cccc2Cl)CC1`, the IC50 was 7.82 µM in assay [1] and 4.3 µM in assay [2].
The corresponding values for `O=C(c1cccc(CNc2n[nH]c3ccccc23)c1)N1CCN(C(=O)c2ccc(Cl)cc2Cl)CC1` are 7.59 µM and 4.03 µM.
The corresponding values for `Cc1cc(NC(=O)c2ccc(CNc3n[nH]c4ccccc34)cc2)ccc1Cl` are > 10 µM and > 10 µM.
For the molecule `COc1ccc(C(=O)N2CCN(C(=O)c3ccc(CNc4n[nH]c5ccccc45)cc3)CC2)c(Cl)c1`, the IC50 in assay [1] was > 10 µM.
Take `O=C(c1cccc(CNc2n[nH]c3cccc(F)c23)c1)N1CCN(C(=O)c2ccc(Cl)cc2Cl)CC1`: the IC50 in assay [1] came to 8 µM; in assay [2] it was 0.189 µM.
For `O=C(c1ccc(CNc2n[nH]c3ccccc23)cc1)N1CCN(C(=O)c2ccccc2OC(F)(F)F)CC1`, the IC50 in assay [1] stood at 8.28 µM; in assay [2], 0.394 µM.
`O=C(c1cccc(CNc2n[nH]c3cc(Cl)ccc23)c1)N1CCN(C(=O)c2ccc(Cl)cc2Cl)CC1` showed an IC50 in assay [2] of 0.239 µM.
